For orientation: IC50 means the concentration needed to halve the response being measured.

The test has as its target Tyrosine-protein kinase BTK (Homo sapiens, UniProt Q06187). Nature of the test: Inhibition Assay: The inhibitory properties of compounds relative to BTK is determined using a black 384-well-plate format in a buffer which contains 50 mM Hepes, 10 mM NaCl, 10 mM MgCl2, 0.2 mM EDTA, 0.01% Brij35®, 1 mM DTT, and 0.1 mg/mL BSA at pH 7.3. The test compound is prepared in DMSO using 2-fold serial dilutions for 11 data points, which are added to the buffer so that each dilution contains 3% DMSO. […] The reaction mixtures are incubated at room temperature for 60 minutes and then quenched by adding 25 μL of 50 mM EDTA. To quantify the fluorescent-labeled substrate and product following reaction, the test plate is loaded on a Caliper LC-3000, which measures percent of conversion by microfluidic-based separation.

Tyrosine-protein kinase BTK, sequence (Q06187 whole entry): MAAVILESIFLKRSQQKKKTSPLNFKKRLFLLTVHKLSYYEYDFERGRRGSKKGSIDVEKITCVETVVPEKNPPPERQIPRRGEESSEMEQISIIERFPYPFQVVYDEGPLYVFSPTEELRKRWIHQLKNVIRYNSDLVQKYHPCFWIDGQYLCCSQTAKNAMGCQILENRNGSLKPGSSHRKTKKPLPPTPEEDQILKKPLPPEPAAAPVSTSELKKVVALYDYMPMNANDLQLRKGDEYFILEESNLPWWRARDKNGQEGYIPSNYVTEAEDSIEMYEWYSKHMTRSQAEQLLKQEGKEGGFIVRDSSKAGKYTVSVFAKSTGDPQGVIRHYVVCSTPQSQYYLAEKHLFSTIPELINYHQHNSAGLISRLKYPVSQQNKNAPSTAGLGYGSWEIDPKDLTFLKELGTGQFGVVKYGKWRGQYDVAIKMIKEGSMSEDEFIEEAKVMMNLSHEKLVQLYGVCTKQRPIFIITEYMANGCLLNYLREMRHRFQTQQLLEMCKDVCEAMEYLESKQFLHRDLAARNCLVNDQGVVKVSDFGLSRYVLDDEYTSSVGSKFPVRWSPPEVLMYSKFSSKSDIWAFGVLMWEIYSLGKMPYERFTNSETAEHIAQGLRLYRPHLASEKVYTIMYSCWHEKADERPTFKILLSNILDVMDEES

Turning to `C=CC(=O)N1CC[C@H](Oc2nc(-c3n[nH]c(=O)[nH]3)cc3cccc(F)c23)C1`, the concentration for half-maximal inhibition (IC50) is less than 1.26 nM.

For the molecule `C=CC(=O)N1CC[C@H](Oc2nc(-c3n[nH]c(=O)[nH]3)cc3ccc(Cl)cc23)C1`, the IC50 is less than 1.26 nM.

(Values after ChEMBL document CHEMBL5726562, “Pyridinyl and fused pyridinyl triazolone derivatives” (2017).)
